Calls of active or inactive are those of the source. No cut-off for these calls is given here.
Key:
[1] = molecular target: Cholinesterase (Equus caballus, UniProt P81908)
Description: Inhibition of equine serum BCHE using butyrylthiocholine iodide as substrate preincubated for 5 mins followed by DTNB addition for 5 mins and subsequent addition of substrate measured after 3 mins by Ellman's method

[2] = molecular target: Acetylcholinesterase (Electrophorus electricus, UniProt O42275); test: Inhibition of electric eel AChE using acetylthiocholine iodide as substrate preincubated for 5 mins followed by DTNB addition for 5 mins and subsequent addition of substrate measured after 3 mins by Ellman's method
[3] = test system: PC-12; test: Protection against CoCl2-induced damage in rat PC12 cells assessed as cell viability at 2.5 uM preincubated for 36 hrs followed by CoCl2 addition measured after 12 hrs by MTT assay (reference value: 51.2%); assay type: functional; details: read-out: Activity
[4] = molecular target: Amyloid-beta precursor protein (Homo sapiens) (UniProt P05067); test: Inhibition of self-induced amyloid beta (1 to 42) (unknown origin) aggregation at 20 uM measured after 24 hrs by ThT fluorescence assay relative to control
[5] = in vitro; details: human, HepG2 cells
Description: Cytotoxicity against human HepG2 cells assessed as cell viability at 10 uM after 24 hrs by MTT assay relative to control

[6] = molecular target: Amyloid-beta precursor protein (Homo sapiens) (UniProt P05067); test: Inhibition of self-induced amyloid beta (1 to 42) (unknown origin) aggregation measured after 24 hrs by ThT fluorescence assay
[7] = molecular target: Acetylcholinesterase (Electrophorus electricus) (UniProt O42275); test: Mixed-type inhibition of electric eel AChE at 2.5 to 10 nM using varying levels of acetylthiocholine iodide as substrate by Lineweaver-Burk plot analysis
[8] = test system: PC-12; test: Protection against CoCl2-induced damage in rat PC12 cells assessed as increase in cell viability preincubated for 36 hrs followed by CoCl2 addition measured after 12 hrs by MTT assay; assay type: functional, cell-based
[9] = molecular target: Amyloid-beta precursor protein (Homo sapiens) (UniProt P05067); test: Inhibition of self-induced amyloid beta (1 to 42) (unknown origin) aggregation at 100 uM measured after 24 hrs by ThT fluorescence assay relative to control
[10] = test system: PC-12; test: Protection against CoCl2-induced damage in rat PC12 cells assessed as cell viability at 10 uM preincubated for 36 hrs followed by CoCl2 addition measured after 12 hrs by MTT assay (reference value: 51.2%); assay type: functional; details: read-out: Activity
[11] = molecular target: Cholinesterase (Homo sapiens, UniProt P06276); test: Inhibition of human serum BCHE using butyrylthiocholine iodide as substrate preincubated for 5 mins followed by DTNB addition for 5 mins and subsequent addition of substrate measured after 3 mins by Ellman's method
[12] = in vitro; details: human, HepG2 cells; remark: listed apart in the source
Description: Cytotoxicity against human HepG2 cells assessed as cell viability at 1.25 uM after 24 hrs by MTT assay relative to control

[13] = in vitro; details: human, HepG2 cells; remark: listed apart in the source
Description: Cytotoxicity against human HepG2 cells assessed as cell viability at 5 uM after 24 hrs by MTT assay relative to control

[14] = molecular target: T1, Acetylcholinesterase (Homo sapiens, UniProt P22303); test: Mixed-type inhibition of human erythrocyte AChE at 2.5 to 10 nM using varying levels of acetylthiocholine iodide as substrate by Lineweaver-Burk plot analysis
[15] = molecular target: T1, Acetylcholinesterase; test: Inhibition of human erythrocyte AChE using acetylthiocholine iodide as substrate preincubated for 5 mins followed by DTNB addition for 5 mins and subsequent addition of substrate measured after 3 mins by Ellman's method
[16] = test system: PC-12; test: Protection against CoCl2-induced damage in rat PC12 cells assessed as cell viability at 5 uM preincubated for 36 hrs followed by CoCl2 addition measured after 12 hrs by MTT assay (reference value: 51.2%); assay type: functional; details: read-out: Activity
[17] = molecular target: T1, Acetylcholinesterase; test: Potency index, ratio of tacrine IC50 to compound IC50 for inhibition of human erythrocyte AChE
[18] = Cytotoxicity against NGF-differentiated rat PC12 cells assessed as cell viability at 10 uM after 48 hrs by MTT assay relative to control; assay type: cell-based, PC-12; details: read-out: Activity
[19] = in vitro; details: human, HepG2 cells; remark: listed apart in the source
Description: Cytotoxicity against human HepG2 cells assessed as cell viability at 2.5 uM after 24 hrs by MTT assay relative to control

[20] = molecular target: Amyloid-beta precursor protein (Homo sapiens) (UniProt P05067); test: Inhibition of self-induced amyloid beta (1 to 42) (unknown origin) aggregation up to 100 uM measured after 24 hrs by ThT fluorescence assay

Amyloid-beta precursor protein (Homo sapiens), sequence (P05067 whole entry): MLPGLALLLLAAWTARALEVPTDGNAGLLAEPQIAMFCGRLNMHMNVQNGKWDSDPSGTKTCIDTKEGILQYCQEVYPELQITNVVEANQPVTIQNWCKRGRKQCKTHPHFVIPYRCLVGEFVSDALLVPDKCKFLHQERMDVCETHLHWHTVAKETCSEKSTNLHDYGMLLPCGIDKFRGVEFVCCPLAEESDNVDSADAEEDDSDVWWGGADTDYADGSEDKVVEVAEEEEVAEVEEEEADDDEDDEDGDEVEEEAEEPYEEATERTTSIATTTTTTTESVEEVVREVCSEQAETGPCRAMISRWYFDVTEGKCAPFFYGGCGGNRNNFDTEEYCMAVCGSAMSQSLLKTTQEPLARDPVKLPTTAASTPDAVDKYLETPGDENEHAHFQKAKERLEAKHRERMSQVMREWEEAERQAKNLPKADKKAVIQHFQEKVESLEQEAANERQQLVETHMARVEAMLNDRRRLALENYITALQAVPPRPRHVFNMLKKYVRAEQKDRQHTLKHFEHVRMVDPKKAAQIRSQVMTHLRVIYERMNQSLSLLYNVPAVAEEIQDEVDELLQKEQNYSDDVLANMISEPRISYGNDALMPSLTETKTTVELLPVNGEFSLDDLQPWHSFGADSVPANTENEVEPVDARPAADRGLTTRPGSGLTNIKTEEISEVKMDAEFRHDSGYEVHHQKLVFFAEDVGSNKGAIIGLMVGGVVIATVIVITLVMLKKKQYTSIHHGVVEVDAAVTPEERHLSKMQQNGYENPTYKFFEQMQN
Acetylcholinesterase (Electrophorus electricus, UniProt O42275), sequence (O42275 whole entry): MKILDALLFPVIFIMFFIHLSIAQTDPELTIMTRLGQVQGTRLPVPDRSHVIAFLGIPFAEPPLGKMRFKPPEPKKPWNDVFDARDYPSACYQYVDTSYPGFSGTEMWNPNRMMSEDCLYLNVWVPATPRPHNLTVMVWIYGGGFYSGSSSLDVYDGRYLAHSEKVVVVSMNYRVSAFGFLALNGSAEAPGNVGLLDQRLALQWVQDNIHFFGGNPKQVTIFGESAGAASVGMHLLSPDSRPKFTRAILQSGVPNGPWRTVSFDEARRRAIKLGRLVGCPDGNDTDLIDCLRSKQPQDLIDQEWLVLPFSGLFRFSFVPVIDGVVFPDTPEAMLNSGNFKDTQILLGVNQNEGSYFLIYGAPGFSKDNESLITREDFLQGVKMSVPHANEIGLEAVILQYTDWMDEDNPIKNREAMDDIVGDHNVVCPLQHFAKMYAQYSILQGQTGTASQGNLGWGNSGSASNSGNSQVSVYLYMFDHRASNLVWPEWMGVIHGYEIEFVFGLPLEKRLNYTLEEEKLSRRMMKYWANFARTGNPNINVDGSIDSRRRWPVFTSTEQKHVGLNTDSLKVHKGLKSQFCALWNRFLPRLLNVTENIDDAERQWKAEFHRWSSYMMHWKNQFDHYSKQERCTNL
Cholinesterase (Equus caballus, UniProt P81908), sequence (P81908 whole entry): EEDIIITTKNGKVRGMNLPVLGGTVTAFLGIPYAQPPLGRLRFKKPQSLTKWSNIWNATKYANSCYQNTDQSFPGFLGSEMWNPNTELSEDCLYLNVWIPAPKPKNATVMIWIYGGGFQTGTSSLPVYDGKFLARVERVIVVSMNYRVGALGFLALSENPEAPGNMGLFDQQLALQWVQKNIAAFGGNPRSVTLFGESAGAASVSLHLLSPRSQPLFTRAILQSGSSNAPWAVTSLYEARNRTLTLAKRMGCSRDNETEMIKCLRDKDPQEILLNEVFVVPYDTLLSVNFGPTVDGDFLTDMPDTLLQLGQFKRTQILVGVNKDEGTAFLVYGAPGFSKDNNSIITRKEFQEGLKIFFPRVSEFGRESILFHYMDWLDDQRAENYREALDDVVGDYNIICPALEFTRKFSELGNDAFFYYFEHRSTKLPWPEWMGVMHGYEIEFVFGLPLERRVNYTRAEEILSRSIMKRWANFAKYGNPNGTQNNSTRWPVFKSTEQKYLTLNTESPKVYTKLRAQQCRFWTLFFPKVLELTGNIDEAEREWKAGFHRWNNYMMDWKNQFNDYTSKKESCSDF
T1 sequence (P22303 whole entry): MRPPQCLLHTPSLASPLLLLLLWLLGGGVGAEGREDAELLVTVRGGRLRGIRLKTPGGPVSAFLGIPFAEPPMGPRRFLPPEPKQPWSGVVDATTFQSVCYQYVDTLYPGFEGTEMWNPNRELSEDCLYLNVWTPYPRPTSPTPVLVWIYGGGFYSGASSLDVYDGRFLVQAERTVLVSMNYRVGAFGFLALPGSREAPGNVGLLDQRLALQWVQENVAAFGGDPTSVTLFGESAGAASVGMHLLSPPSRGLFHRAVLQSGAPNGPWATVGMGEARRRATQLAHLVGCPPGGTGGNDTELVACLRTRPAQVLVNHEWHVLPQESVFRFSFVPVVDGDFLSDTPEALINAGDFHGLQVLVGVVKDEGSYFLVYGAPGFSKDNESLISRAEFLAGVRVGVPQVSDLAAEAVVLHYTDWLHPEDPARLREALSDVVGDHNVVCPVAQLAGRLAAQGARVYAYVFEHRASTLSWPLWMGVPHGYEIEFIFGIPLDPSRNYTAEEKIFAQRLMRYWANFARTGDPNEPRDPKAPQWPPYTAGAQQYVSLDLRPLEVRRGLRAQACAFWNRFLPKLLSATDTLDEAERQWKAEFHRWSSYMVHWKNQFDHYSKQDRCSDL
Cholinesterase (Homo sapiens, UniProt P06276), sequence (P06276 whole entry): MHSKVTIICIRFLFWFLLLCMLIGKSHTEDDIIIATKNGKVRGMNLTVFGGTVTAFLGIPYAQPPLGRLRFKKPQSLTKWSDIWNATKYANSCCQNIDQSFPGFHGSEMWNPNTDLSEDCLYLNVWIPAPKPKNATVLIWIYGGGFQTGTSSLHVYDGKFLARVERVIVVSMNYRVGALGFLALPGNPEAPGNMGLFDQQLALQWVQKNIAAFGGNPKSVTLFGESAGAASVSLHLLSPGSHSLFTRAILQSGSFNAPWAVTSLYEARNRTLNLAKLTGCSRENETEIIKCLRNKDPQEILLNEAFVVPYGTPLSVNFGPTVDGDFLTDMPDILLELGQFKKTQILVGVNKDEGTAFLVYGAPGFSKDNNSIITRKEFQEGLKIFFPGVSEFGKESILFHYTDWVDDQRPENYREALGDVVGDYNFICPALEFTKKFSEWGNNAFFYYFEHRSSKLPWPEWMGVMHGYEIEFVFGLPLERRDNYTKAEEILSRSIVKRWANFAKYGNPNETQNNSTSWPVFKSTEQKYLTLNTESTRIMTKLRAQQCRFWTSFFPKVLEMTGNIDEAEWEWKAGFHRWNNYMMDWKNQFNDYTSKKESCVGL
Acetylcholinesterase (Electrophorus electricus), sequence (O42275 24-633 limits assumed): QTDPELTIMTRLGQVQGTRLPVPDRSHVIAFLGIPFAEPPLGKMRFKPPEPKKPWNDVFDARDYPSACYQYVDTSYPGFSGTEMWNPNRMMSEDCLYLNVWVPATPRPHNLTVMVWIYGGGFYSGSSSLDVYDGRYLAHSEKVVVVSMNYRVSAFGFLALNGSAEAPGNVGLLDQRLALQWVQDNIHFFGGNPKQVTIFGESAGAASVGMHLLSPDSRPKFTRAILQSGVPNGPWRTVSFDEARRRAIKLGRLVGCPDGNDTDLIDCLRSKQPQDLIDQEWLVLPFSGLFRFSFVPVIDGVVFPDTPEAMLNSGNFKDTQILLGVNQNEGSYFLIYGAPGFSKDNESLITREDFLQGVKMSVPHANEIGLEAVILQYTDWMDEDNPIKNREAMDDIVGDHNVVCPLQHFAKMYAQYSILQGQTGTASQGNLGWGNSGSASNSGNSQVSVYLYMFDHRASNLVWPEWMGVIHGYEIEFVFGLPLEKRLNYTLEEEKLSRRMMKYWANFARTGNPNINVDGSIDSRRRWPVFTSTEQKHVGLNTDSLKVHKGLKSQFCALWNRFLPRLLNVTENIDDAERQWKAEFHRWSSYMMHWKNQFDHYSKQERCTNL

Compound	IC50 [1] [nM]	IC50 [2] [nM]	further results
Cc1nc(C)c(COc2ccc(CC(O)C(=O)NCCCCNc3c4c(nc5ccccc35)CCCC4)cc2OCc2nc(C)c(C)nc2C)nc1C (centres undefined)	> 1000	> 1000	
COc1cc(/C=C/C(=O)NCCCCCCNc2c3c(nc4ccccc24)CCCC3)cc(OC)c1O	24.3	3.9	viability at 2.5 µM [3]: 92.4%; inhibition [4]: 47%; viability at 24 h, 10 µM [5]: 81.8%; inhibition [6]: Dose-dependent effect; inhibition [7]: Active; Activity [8]: Dose-dependent effect; inhibition [9]: 48%; viability at 10 µM [10]: 107%; IC50 [11]: 48.8 nM; viability at 24 h, 1.25 µM [12]: 98.4%; viability at 24 h, 5 µM [13]: 94.9%; inhibition [14]: Active; IC50 [15]: 65.2 nM; viability at 5 µM [16]: 99.5%; Ratio IC50 [17]: 2; viability at 48 h, 10 µM [18]: 131%; viability at 24 h, 2.5 µM [19]: 96.3%
O=C(/C=C/c1ccc(O)cc1)NCCCNc1c2c(nc3ccccc13)CCCC2	43.3	128	
COc1cc(/C=C/C(=O)NCCCCCCCCNc2c3c(nc4ccccc24)CCCC3)cc(OC)c1O	9.3	32.5	
COc1cc(/C=C/C(=O)NCCNc2c3c(nc4ccccc24)CCCC3)ccc1OCc1nc(C)c(C)nc1C	502	33.1	
O=C(/C=C/c1ccc(O)cc1)NCCCCCCCCNc1c2c(nc3ccccc13)CCCC2	278	522	
COc1cc(/C=C/C(=O)NCCCCCCCCNc2c3c(nc4ccccc24)CCCC3)cc(OC)c1OCc1nc(C)c(C)nc1C	16.6	145	
COc1cc(/C=C/C(=O)NCCCCNc2c3c(nc4ccccc24)CCCC3)cc(OC)c1OCc1nc(C)c(C)nc1C	> 1000	179	
Cc1nc(C)c(COc2ccc(CC(O)C(=O)NCCCCCCNc3c4c(nc5ccccc35)CCCC4)cc2OCc2nc(C)c(C)nc2C)nc1C (centres undefined)	1.3	270	
O=C(/C=C/c1ccc(O)cc1)NCCCCNc1c2c(nc3ccccc13)CCCC2	29.8	139	
COc1cc(/C=C/C(=O)NCCNc2c3c(nc4ccccc24)CCCC3)cc(OC)c1O	> 1000	101	
Cc1nc(C)c(COc2ccc(/C=C/C(=O)NCCCNc3c4c(nc5ccccc35)CCCC4)cc2)nc1C	5.2	205	
Cc1nc(C)c(COc2ccc(CC(O)C(=O)NCCCCCCCCNc3c4c(nc5ccccc35)CCCC4)cc2OCc2nc(C)c(C)nc2C)nc1C (centres undefined)	3.8	65.1	
Cc1nc(C)c(COc2ccc(/C=C/C(=O)NCCCCCCNc3c4c(nc5ccccc35)CCCC4)cc2)nc1C	147	304	
Cc1nc(C)c(COc2ccc(/C=C/C(=O)NCCCCNc3c4c(nc5ccccc35)CCCC4)cc2OCc2nc(C)c(C)nc2C)nc1C	111	139	
Cc1nc(C)c(COc2ccc(/C=C/C(=O)NCCNc3c4c(nc5ccccc35)CCCC4)cc2OCc2nc(C)c(C)nc2C)nc1C	> 1000	108	
O=C(/C=C/c1ccc(O)cc1)NCCNc1c2c(nc3ccccc13)CCCC2	302	110	
Cc1nc(C)c(COc2ccc(/C=C/C(=O)NCCCNc3c4c(nc5ccccc35)CCCC4)cc2OCc2nc(C)c(C)nc2C)nc1C	199	13.7	

Compound	IC50 [1] [nM]	IC50 [2] [nM]	further results
COc1cc(/C=C/C(=O)NCCCNc2c3c(nc4ccccc24)CCCC3)ccc1OCc1nc(C)c(C)nc1C	22.6	12.2	
COc1cc(/C=C/C(=O)NCCCCCCNc2c3c(nc4ccccc24)CCCC3)ccc1OCc1nc(C)c(C)nc1C	28.3	14.7	
COc1cc(/C=C/C(=O)NCCCNc2c3c(nc4ccccc24)CCCC3)cc(OC)c1OCc1nc(C)c(C)nc1C	> 1000	116	
COc1cc(/C=C/C(=O)NCCCCCCNc2c3c(nc4ccccc24)CCCC3)cc(OC)c1OCc1nc(C)c(C)nc1C	28.6	2.6	viability at 2.5 µM [3]: 37.7%; inhibition [20]: inactive; viability at 10 µM [10]: 11.2%; IC50 [11]: 577 nM; IC50 [15]: 108 nM; viability at 5 µM [16]: 15%
COc1cc(/C=C/C(=O)NCCCCNc2c3c(nc4ccccc24)CCCC3)cc(OC)c1O	241	64.4	
COc1cc(/C=C/C(=O)NCCCNc2c3c(nc4ccccc24)CCCC3)cc(OC)c1O	330	25.8	
Cc1nc(C)c(COc2ccc(/C=C/C(=O)NCCCCCCCCNc3c4c(nc5ccccc35)CCCC4)cc2OCc2nc(C)c(C)nc2C)nc1C	61.8	> 1000	
Cc1nc(C)c(COc2ccc(CC(O)C(=O)NCCCNc3c4c(nc5ccccc35)CCCC4)cc2OCc2nc(C)c(C)nc2C)nc1C (centres undefined)	165	> 1000	
Cc1nc(C)c(COc2ccc(/C=C/C(=O)NCCCCCCNc3c4c(nc5ccccc35)CCCC4)cc2OCc2nc(C)c(C)nc2C)nc1C	68.1	136	
O=C(/C=C/c1ccc(O)cc1)NCCCCCCNc1c2c(nc3ccccc13)CCCC2	24.1	44.6	
Cc1nc(C)c(COc2ccc(/C=C/C(=O)NCCNc3c4c(nc5ccccc35)CCCC4)cc2)nc1C	589	44.9	
COc1cc(/C=C/C(=O)NCCCCNc2c3c(nc4ccccc24)CCCC3)ccc1OCc1nc(C)c(C)nc1C	32.4	188	
COc1cc(/C=C/C(=O)NCCNc2c3c(nc4ccccc24)CCCC3)cc(OC)c1OCc1nc(C)c(C)nc1C	613	65.3	
Cc1nc(C)c(COc2ccc(CC(O)C(=O)NCCNc3c4c(nc5ccccc35)CCCC4)cc2OCc2nc(C)c(C)nc2C)nc1C (centres undefined)	816	> 1000	
Cc1nc(C)c(COc2ccc(/C=C/C(=O)NCCCCCCCCNc3c4c(nc5ccccc35)CCCC4)cc2)nc1C	228	264	
Cc1c(C)c2c(c(C)c1O)CCC(C)(C(=O)O)O2 (centres undefined) [TROLOX]			viability at 10 µM [10]: 101%
COc1cc(/C=C/C(=O)NCCCCCCCCNc2c3c(nc4ccccc24)CCCC3)ccc1OCc1nc(C)c(C)nc1C	174	304	
Cc1nc(C)c(COc2ccc(/C=C/C(=O)NCCCCNc3c4c(nc5ccccc35)CCCC4)cc2)nc1C	2.3	334	

Reference: ChEMBL document CHEMBL4196025 (Eur J Med Chem, 2018)
